Assay results published in patent US20020137929A1, “1 - (3-heterocyclylphenyl) isothiourea, -isourea, -guanidine and -amidine herbicidal agents” (Intellectual Property Department, BASF Aktiengesellschaft, priority 1998, published 2002).

Key:
CYPIR (Rice Flatsedge) = experiment: Postemergence weed control under flooded paddy conditions; type: in vivo, Cyperus iria; details: postemergence weeds, 3-4 weeks after treatment
Method in brief: (§1)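 Weeds 3 to 5 cm tall and rice seedlings at the 1.5 to 2.5 leaf stage were flooded, with water held 1.5 to 3 cm above the soil. Compounds in 50/50 v/v aqueous/acetone went into the flood water at about 0.0313 to 0.500 kg/ha. Visual 0-9 ratings versus control were made 3 to 4 weeks later.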

[1] = test system: TRZAWR (Wheat, Winter, cv Riband); experiment: Postemergence herbicidal evaluation; type: in vivo, Triticum aestivum; details: postemergence
Method in brief: (§2)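 Visual 0–9 rating versus control (stand, vigor, malformation, size, chlorosis, overall appearance), taken four to five weeks post-spray. Two-week-old seedlings received roughly 0.0156–0.500 kg/ha active in acetone/water (50/50) with 0.5% TWEEN 20 via nozzle at 40 psi.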

[2] = test system: GLXMAW (Soybean, Williams); experiment: Postemergence herbicidal evaluation; type: in vivo, Glycine max, (L.) Merr. cv Williams; details: postemergence
Method in brief: as §2

SETVI (Foxtail, Green) [3] = experiment: Preemergence herbicidal evaluation; type: in vivo, Setaria viridis; details: rated 4-5 weeks after treatment
Method in brief: (§3)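 Scores (0–9) reflect visual comparison with control plants for stand, vigor, malformation, size and chlorosis. Compound was applied to the soil after sowing, before emergence, as an aqueous acetone spray (about 0.0156–0.500 kg/ha), and cups were kept in a greenhouse for 4–5 weeks.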

ABUTH (Velvetleaf) [4] = experiment: Postemergence herbicidal evaluation; type: in vivo, Abutilon theophrasti; details: postemergence
Method in brief: as §2

[5] = test system: SAGPY (Arrowhead (Pygmaea)); experiment: Postemergence weed control under flooded paddy conditions; type: in vivo, Sagittaria pygmaea; details: postemergence weeds, 3-4 weeks after treatment
Method in brief: as §1

SETVI (Foxtail, Green) [6] = experiment: Postemergence herbicidal evaluation; type: in vivo, Setaria viridis; details: postemergence
Method in brief: as §2

[7] = test system: SAGPY (Arrowhead (Pygmaea)); experiment: Preemergence weed control under flooded paddy conditions; type: in vivo, Sagittaria pygmaea; details: rated 3-4 weeks after treatment
Method in brief: (§4)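 Values are visual 0-9 scores against a control for a preemergence application into paddy flood water at about 0.0313 to 0.500 kg/ha. Greenhouse duration was three to four weeks.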

ORYSAT (Rice, Tebonnet) = experiment: Postemergence herbicidal evaluation; type: in vivo, Oryza sativa, (L.) Tebonnet; details: postemergence
Method in brief: as §2

ECHCG (Barnyardgrass) = experiment: Postemergence herbicidal evaluation; type: in vivo, Echinochloa crus-galli; details: postemergence
Method in brief: as §2

CASOB (Sicklepod) = experiment: Preemergence herbicidal evaluation; type: in vivo, Cassia obtusifolia; details: rated 4-5 weeks after treatment
Method in brief: as §3

AMBEL (Ragweed, Common) = experiment: Postemergence herbicidal evaluation; type: in vivo, Ambrosia artemisifolia; details: postemergence
Method in brief: as §2

ABUTH (Velvetleaf) [8] = experiment: Preemergence herbicidal evaluation; type: in vivo, Abutilon theophrasti; details: rated 4-5 weeks after treatment
Method in brief: as §3

MOOVA (Monochoria) = experiment: Preemergence weed control under flooded paddy conditions; type: in vivo, Monochoria vaginalis; details: rated 3-4 weeks after treatment
Method in brief: as §4

Which “Herbicidal rating CYPIR” value (CYPIR (Rice Flatsedge); rate 0.0625 kg/ha) does the source give for `O=C1CSC(=Nc2cc(N3C(=O)C4=C(CCCC4)C3=O)c(F)cc2Cl)N1c1ccccc1` [Compound 3, N-{4-chloro-2-fluoro-5-[(4-oxo-3-phenyl-2-thiazolidinylidene)amino]phenyl}-1-cyclohexene-1,2-dicarboximide] here?
The value was 0.0.

What about the “Herbicidal rating CYPIR” value (CYPIR (Rice Flatsedge); rate 0.1250 kg/ha) of the same molecule?
Its value is 0.0.

What about the “Herbicidal rating CYPIR” value (CYPIR (Rice Flatsedge); rate 0.2500 kg/ha) of the same molecule?
The value was 0.0.

What about the “Herbicidal rating CYPIR” value (CYPIR (Rice Flatsedge); rate 0.5000 kg/ha) of the same molecule?
Its value is 0.5.

And the TRZAWR herbicidal rating ([1]; rate 0.0157 kg/ha)?
The TRZAWR herbicidal rating was 2.5.

What about the TRZAWR herbicidal rating ([1]; rate 0.0313 kg/ha) of the same molecule?
The TRZAWR herbicidal rating was 2.5.

And the TRZAWR herbicidal rating ([1]; rate 0.0625 kg/ha)?
The TRZAWR herbicidal rating was 3.0.

And the TRZAWR herbicidal rating ([1]; rate 0.1250 kg/ha)?
The TRZAWR herbicidal rating was 2.5.

What about the TRZAWR herbicidal rating ([1]; rate 0.2500 kg/ha) of the same molecule?
Its TRZAWR herbicidal rating is 3.0.

What about the TRZAWR herbicidal rating ([1]; rate 0.5000 kg/ha) of the same molecule?
The TRZAWR herbicidal rating was 4.0.

What about the GLXMAW herbicidal rating ([2]; rate 0.0157 kg/ha) of the same molecule?
Its GLXMAW herbicidal rating is 2.5.

And the GLXMAW herbicidal rating ([2]; rate 0.0313 kg/ha)?
Its GLXMAW herbicidal rating is 3.5.

What about the GLXMAW herbicidal rating ([2]; rate 0.0625 kg/ha) of the same molecule?
Its GLXMAW herbicidal rating is 3.0.

What about the GLXMAW herbicidal rating ([2]; rate 0.1250 kg/ha) of the same molecule?
Its GLXMAW herbicidal rating is 4.0.

What about the GLXMAW herbicidal rating ([2]; rate 0.2500 kg/ha) of the same molecule?
Its GLXMAW herbicidal rating is 4.0.

And the GLXMAW herbicidal rating ([2]; rate 0.5000 kg/ha)?
The GLXMAW herbicidal rating was 4.5.

What about the “SETVI preemergence herbicidal rating” value (SETVI (Foxtail, Green) [3]; rate 0.0313 kg/ha) of the same molecule?
Its value is 0.0.

What about the “SETVI preemergence herbicidal rating” value (SETVI (Foxtail, Green) [3]; rate 0.0625 kg/ha) of the same molecule?
The value was 4.0.

And the “SETVI preemergence herbicidal rating” value (SETVI (Foxtail, Green) [3]; rate 0.1250 kg/ha)?
The value was 4.0.

And the “SETVI preemergence herbicidal rating” value (SETVI (Foxtail, Green) [3]; rate 0.2500 kg/ha)?
Its value is 4.0.

And the “SETVI preemergence herbicidal rating” value (SETVI (Foxtail, Green) [3]; rate 0.5000 kg/ha)?
Its value is 9.0.

And the ABUTH herbicidal rating (ABUTH (Velvetleaf) [4]; rate 0.0157 kg/ha)?
Its ABUTH herbicidal rating is 6.0.

What about the ABUTH herbicidal rating (ABUTH (Velvetleaf) [4]; rate 0.0313 kg/ha) of the same molecule?
Its ABUTH herbicidal rating is 6.0.

And the ABUTH herbicidal rating (ABUTH (Velvetleaf) [4]; rate 0.0625 kg/ha)?
The ABUTH herbicidal rating was 6.0.

And the ABUTH herbicidal rating (ABUTH (Velvetleaf) [4]; rate 0.1250 kg/ha)?
The ABUTH herbicidal rating was 9.0.

And the ABUTH herbicidal rating (ABUTH (Velvetleaf) [4]; rate 0.2500 kg/ha)?
Its ABUTH herbicidal rating is 6.0.

And the ABUTH herbicidal rating (ABUTH (Velvetleaf) [4]; rate 0.5000 kg/ha)?
The ABUTH herbicidal rating was 9.0.

What about the “Herbicidal rating SAGPY” value ([5]; rate 0.0625 kg/ha) of the same molecule?
Its value is 0.0.

What about the “Herbicidal rating SAGPY” value ([5]; rate 0.1250 kg/ha) of the same molecule?
The value was 0.0.

What about the “Herbicidal rating SAGPY” value ([5]; rate 0.2500 kg/ha) of the same molecule?
Its value is 0.0.

What about the “Herbicidal rating SAGPY” value ([5]; rate 0.5000 kg/ha) of the same molecule?
The value was 0.0.

What about the SETVI herbicidal rating (SETVI (Foxtail, Green) [6]; rate 0.0157 kg/ha) of the same molecule?
The SETVI herbicidal rating was 0.0.

And the SETVI herbicidal rating (SETVI (Foxtail, Green) [6]; rate 0.0313 kg/ha)?
Its SETVI herbicidal rating is 0.0.

And the SETVI herbicidal rating (SETVI (Foxtail, Green) [6]; rate 0.0625 kg/ha)?
The SETVI herbicidal rating was 0.0.

What about the SETVI herbicidal rating (SETVI (Foxtail, Green) [6]; rate 0.1250 kg/ha) of the same molecule?
Its SETVI herbicidal rating is 0.0.

What about the SETVI herbicidal rating (SETVI (Foxtail, Green) [6]; rate 0.2500 kg/ha) of the same molecule?
The SETVI herbicidal rating was 0.0.

And the SETVI herbicidal rating (SETVI (Foxtail, Green) [6]; rate 0.5000 kg/ha)?
The SETVI herbicidal rating was 0.0.

What about the “Herbicidal rating SAGPY” value ([7]; 0.0625 kg/ha) of the same molecule?
Its value is 0.0.

What about the “Herbicidal rating SAGPY” value ([7]; 0.1250 kg/ha) of the same molecule?
Its value is 0.0.

What about the “Herbicidal rating SAGPY” value ([7]; 0.2500 kg/ha) of the same molecule?
Its value is 0.0.

What about the “Herbicidal rating SAGPY” value ([7]; 0.5000 kg/ha) of the same molecule?
The value was 0.0.

And the ORYSAT herbicidal rating (ORYSAT (Rice, Tebonnet); rate 0.0157 kg/ha)?
The ORYSAT herbicidal rating was 2.0.

What about the ORYSAT herbicidal rating (ORYSAT (Rice, Tebonnet); rate 0.0313 kg/ha) of the same molecule?
Its ORYSAT herbicidal rating is 2.5.

And the ORYSAT herbicidal rating (ORYSAT (Rice, Tebonnet); rate 0.0625 kg/ha)?
Its ORYSAT herbicidal rating is 3.0.

And the ORYSAT herbicidal rating (ORYSAT (Rice, Tebonnet); rate 0.1250 kg/ha)?
Its ORYSAT herbicidal rating is 3.0.

And the ORYSAT herbicidal rating (ORYSAT (Rice, Tebonnet); rate 0.2500 kg/ha)?
Its ORYSAT herbicidal rating is 2.0.

And the ORYSAT herbicidal rating (ORYSAT (Rice, Tebonnet); rate 0.5000 kg/ha)?
The ORYSAT herbicidal rating was 3.5.

What about the ECHCG herbicidal rating (ECHCG (Barnyardgrass); rate 0.0157 kg/ha) of the same molecule?
The ECHCG herbicidal rating was 0.0.

What about the ECHCG herbicidal rating (ECHCG (Barnyardgrass); rate 0.0313 kg/ha) of the same molecule?
Its ECHCG herbicidal rating is 0.0.

What about the ECHCG herbicidal rating (ECHCG (Barnyardgrass); rate 0.0625 kg/ha) of the same molecule?
The ECHCG herbicidal rating was 0.0.

What about the ECHCG herbicidal rating (ECHCG (Barnyardgrass); rate 0.1250 kg/ha) of the same molecule?
Its ECHCG herbicidal rating is 0.0.

And the ECHCG herbicidal rating (ECHCG (Barnyardgrass); rate 0.2500 kg/ha)?
Its ECHCG herbicidal rating is 0.0.

What about the ECHCG herbicidal rating (ECHCG (Barnyardgrass); rate 0.5000 kg/ha) of the same molecule?
The ECHCG herbicidal rating was 0.0.

What about the “CASOB preemergence herbicidal rating” value (CASOB (Sicklepod); rate 0.0313 kg/ha) of the same molecule?
Its value is 0.0.

And the “CASOB preemergence herbicidal rating” value (CASOB (Sicklepod); rate 0.0625 kg/ha)?
The value was 0.0.

And the “CASOB preemergence herbicidal rating” value (CASOB (Sicklepod); rate 0.1250 kg/ha)?
The value was 0.0.

What about the “CASOB preemergence herbicidal rating” value (CASOB (Sicklepod); rate 0.2500 kg/ha) of the same molecule?
Its value is 0.0.

What about the “CASOB preemergence herbicidal rating” value (CASOB (Sicklepod); rate 0.5000 kg/ha) of the same molecule?
The value was 2.0.

What about the AMBEL herbicidal rating (AMBEL (Ragweed, Common); rate 0.0313 kg/ha) of the same molecule?
Its AMBEL herbicidal rating is 2.0.

What about the AMBEL herbicidal rating (AMBEL (Ragweed, Common); rate 0.0625 kg/ha) of the same molecule?
The AMBEL herbicidal rating was 0.0.

And the AMBEL herbicidal rating (AMBEL (Ragweed, Common); rate 0.1250 kg/ha)?
Its AMBEL herbicidal rating is 6.0.

What about the AMBEL herbicidal rating (AMBEL (Ragweed, Common); rate 0.2500 kg/ha) of the same molecule?
The AMBEL herbicidal rating was 6.0.

What about the AMBEL herbicidal rating (AMBEL (Ragweed, Common); rate 0.5000 kg/ha) of the same molecule?
Its AMBEL herbicidal rating is 9.0.

And the “ABUTH preemergence herbicidal rating” value (ABUTH (Velvetleaf) [8]; rate 0.0625 kg/ha)?
Its value is 2.0.

And the “ABUTH preemergence herbicidal rating” value (ABUTH (Velvetleaf) [8]; rate 0.1250 kg/ha)?
Its value is 2.0.

What about the “ABUTH preemergence herbicidal rating” value (ABUTH (Velvetleaf) [8]; rate 0.2500 kg/ha) of the same molecule?
Its value is 0.0.

What about the “ABUTH preemergence herbicidal rating” value (ABUTH (Velvetleaf) [8]; rate 0.5000 kg/ha) of the same molecule?
Its value is 6.0.

What about the “Herbicidal rating MOOVA” value (MOOVA (Monochoria); 0.0625 kg/ha) of the same molecule?
Its value is 2.0.

What about the “Herbicidal rating MOOVA” value (MOOVA (Monochoria); 0.1250 kg/ha) of the same molecule?
Its value is 9.0.

And the “Herbicidal rating MOOVA” value (MOOVA (Monochoria); 0.2500 kg/ha)?
Its value is 9.0.

And the “Herbicidal rating MOOVA” value (MOOVA (Monochoria); 0.5000 kg/ha)?
Its value is 9.0.
